Experimental findings from US20230331739A1, “INDOLO HEPTAMYL OXIME ANALOG CRYSTAL AS PARP INHIBITOR AND METHOD FOR PREPARING SAME” (CHIA TAI TIANQING PHARMACEUTICAL GROUP CO., LTD., priority 2020, published 2023) are described below.

A word on the T/C: it is the result in the treated group divided by that in the control group, in per cent. The bioavailability is the share of a dose that reaches the circulation, judged against a reference dose that is usually intravenous. One may read the half-life as how long it takes for the measured level to halve.

Data set [1] in a line: Metabolic stability in liver microsomes, human. In kind it is in vitro ADME. The settings on record: 1 μM, 0.5 mg/mL. The procedure: (§1) Objective: To test the metabolic stability of the test compound in liver microsomes of three species.
(§2) Procedures: 1 μM test compound and microsomes (0.5 mg/mL) were incubated at 37° C. in the presence of an NADPH regeneration system. Positive controls were testosterone ([…]), propylamine propiophenone (2D6 substrate) and diclofenac (2C9 substrate). At 37° C., positive controls were incubated with microsomes (0.5 mg/mL) in the presence of an NADPH regeneration system. The reaction was stopped by direct mixing of the sample with cold acetonitrile containing an internal standard at various time points (0, 5, 10, 20, 30 and 60 min). The compound and microsomes were incubated for 60 min in the absence of an NADPH regeneration system. One replicate (n=1) was set at each time point. The samples were analyzed by LC/MS/MS; the concentration of the compound was characterized by the ratio of the analyte peak area to the internal standard peak area.

The subject of data set [2] is human breast cancer MDA-MB-436 cell xenograft tumor. In words: In vivo pharmacodynamic study in subcutaneous MDA-MB-436 xenograft tumor model. Also noted: species or system BALB/c nude mouse. The settings on record: for Tumor volume (day 27): Mean ± SEM; for T/C / TGI: day 27. From the text: Objective: To study the in vivo efficacy of the test compound in BALB/c nude mouse model with subcutaneous human breast cancer MDA-MB-436 cell xenograft tumor.
Materials: Age and body weight: female BALB/c nude mice, aged 6-8 weeks, 18-22 g. The study started after 3-7 days of adaptive feeding. The animal information card of each cage was labeled with the following information about the animals: number, sex, strain, receipt date, regime, study number, group and start of treatment. All the cages, padding and drinking water were sterilized before use. The cages, feed and drinking water were refreshed twice a week. The animals were identified with ear tags. Test samples: Nirapariband and compound 1. All the test samples were prepared with 10% DMSO+90% (20% HP-β-CD) as vehicle, and the blank control group was administered with the vehicle alone.
1. Cell culturing: Human breast cancer MDA-MB-436 cells (ATCC, Manassas, VA, catalog No.: HTB-130) were cultured in an RPMI-1640 culture medium containing 10% fetal bovine serum and 1% Anti-anti through in vitro monolayer culture in an incubator at 37° C./5% CO2. The cells were digested with trypsin-EDTA twice a week for passaging as per conventional practice. At a cell saturation of 80%-90% and a required number, the cells were collected, counted and grafted.
2. Tumor cell grafting (tumor grafting): 0.2 mL (1×10^7 cells) of MDA-MB-436 cells (along with matrigel in a volume ratio of 1:1) was subcutaneously grafting on the right back of each mouse, and the mice were randomly divided into groups for administration after the mean tumor volume was approximately 318 mm^3.
3. Daily observation of animals: the animals were monitored daily for health and death, and routine examinations include observation of the effect on tumor growth and the therapy on the daily performance of the animals, such as behavioral activities, food and water intake, change in body weight, appearance, or other abnormal conditions.
4. Tumor measurement and experimental indexes: the experimental indexes were to investigate whether the tumor growth was inhibited or delayed or the tumor was cured. Tumor diameters were measured twice weekly using a vernier caliper. The tumor volume was calculated using the following formula: V=0.5 a×b^2, where a and b represent the long diameter and short diameter of the tumor, respectively. The anti-tumor efficacy of the compound was evaluated by TGI (%) or relative tumor proliferation rate T/C (%). TGI (%) refers to the tumor growth inhibition. Calculation of TGI (%): TGI (%)=[(1−(mean tumor volume at the end of administration of a treatment group−mean tumor volume at the start of administration of the treatment group))/(mean tumor volume at the end of treatment of the solvent control group−mean tumor volume at the start of treatment of the solvent control group)]×100%. The calculation formula for relative tumor proliferation rate T/C (%) was as follows: T/C (%)=TRTV/CRTV×100% (TRTV: RTV of treatment group; CRTV: RTV of negative control group). Relative tumor volume (RTV) was calculated based on the results of tumor measurement. The calculation formula was: RTV=Vt/V0, where V0 was the mean tumor volume measured at the time of grouping and administration (i.e., do), Vt was the mean tumor volume at a certain measurement, and the data of TRTV and CRTV were obtained on the same day.
5. Statistical analysis: including mean and standard error of mean (SEM) of tumor volume at each time point in each group. […] The experimental data were analyzed using one-way ANOVA and Games-Howell method. All the data were analyzed using SPSS 17.0. p<0.05 was defined as significance.

Data set [3] is described as follows: Single-dose pharmacokinetic study in mice. It counts as in vivo, male C57BL/6 mice. As to the method: Objectives: To evaluate the pharmacokinetic behavior in male C57BL/6 mice and to determine the drug concentrations of the compound in the plasma, liver and cerebrospinal fluid after a single dose.
Procedures: Healthy adult male C57BL/6 mice were selected for intragastric administration. The candidate compound was mixed with an appropriate amount of 10% DMSO/90% (20% hydroxypropyl-@-cyclodextrin), vortexed and sonicated to prepare a 0.5 mg/mL clear solution for later use. After the mice were administered intravenously at 1 mg/kg and orally at 5 mg/kg, whole blood was collected at certain time points. Plasma was separated, and liver and cerebrospinal fluid were collected. After pretreatment of the samples, the drug concentration was measured by LC-MS/MS, and pharmacokinetic parameters were calculated using Phoenix WinNonlin software.

A short description of data set [4]: Metabolic stability in liver microsomes, mouse. In kind it is in vitro ADME. The settings on record: 1 μM, 0.5 mg/mL. As to the method:
as §1, §2
(In general: Liver microsomes are vesicles of endoplasmic reticulum, rich in cytochrome P450 enzymes.)

Data set [5] in a line: Metabolic stability in liver microsomes, rat. In kind it is in vitro ADME. The settings on record: 1 μM, 0.5 mg/mL. As to the method: as §1, §2
[6] abbreviates: male, C57BL/6, mouse, plasma, IV: 1 mg/kg PO: 5 mg/kg.

Like-named read-outs stand apart in the source and are kept apart here.

On to `C[C@]1(c2ccc(-c3[nH]c4cc(F)cc5c4c3CONC5=O)cc2)CCCN1` [Compound 1], for which the “Residual content after 60 min of incubation” value stood at 35.9% in data set [1], 40.7% in data set [4] and 31.8% in data set [5]. In addition, the “Tumor volume (day 27)” value in data set [2] (12.5 mg/kg PO QD × 28 days) was 377 ± 149 mm^3; in data set [2] (25 mg/kg PO QD × 28 days), 132 ± 32 mm^3; in data set [2] (50 mg/kg PO QD × 28 days), 91 ± 14 mm^3. The T/C in data set [2] (12.5 mg/kg PO QD × 28 days) is 23.79%; in data set [2] (25 mg/kg PO QD × 28 days) it was 8.31%; in data set [2] (50 mg/kg PO QD × 28 days) it was 5.76%. The values for the TGI in data set [2] (12.5 mg/kg PO QD × 28 days), in data set [2] (25 mg/kg PO QD × 28 days) and in data set [2] (50 mg/kg PO QD × 28 days) were 95.34%, 114.69% and 117.86%, respectively. Also, in data set [3] (IV: 1 mg/kg PO: 5 mg/kg), the Maximum concentration turned out to be 240 nM. The AUC(0-t) in data set [3] (male, C57BL/6, mouse, plasma, IV 1 mg/kg, read-out: AUC0-last (intravenous injection)) is 0.958 µM·h; in data set [3] (male, C57BL/6, mouse, plasma, PO 5 mg/kg, read-out: AUC0-last (oral)), 1.19 µM·h. The bioavailability in data set [3] (setting [6]) was determined as 24.8%. The half-life in data set [3] (setting [6]) was 3.02 h. In data set [3] (male, C57BL/6, mouse, plasma, IV: 1 mg/kg PO: 5 mg/kg, read-out: Apparent volume of distribution), the Vd was 9.44 L/kg. In data set [3] (male, C57BL/6, mouse, plasma, IV: 1 mg/kg PO: 5 mg/kg, read-out: Clearance rate), the clearance came to 41 mL/min/kg.
